Measured values from PMC6107127, “Characteristics of the mitochondrial and cellular uptake of MPP^+, as probed by the fluorescent mimic, 4'I-MPP^+” (PLoS ONE, 2018).

What was measured:
MN9D cells [1] = test: Intracellular ATP levels; assay type: cell-based, mouse; settings: 100 μM, 6 h at 37 °C
Method: (§1) Cells grown in 12-well plates were treated with 100 μM MPP^+ or 4'I-MPP^+ in KRB-HEPES for 6 h at 37 °C. After the treatments, cells were suspended in 1 mL of ice-cold KRB-HEPES and 50 μL samples were withdrawn for protein quantification. The remaining cell suspensions were centrifuged for 3 min at 3,500 x g at 4 °C and the cell pellets were treated with 1 mL of lysis buffer (0.1 M Tris, 1% Triton X-100, pH 7.5) for 2 min and centrifuged at 3,500 x g for 3 min to remove the cell debris. The ATP contents of the supernatants were measured using a fluorometric ATP assay kit (BioVision, Milpitas CA, USA) following the manufacture’s guidelines. All ATP levels were normalized to the protein content of each sample.

[2] = tested on: rat brain mitochondrial complex-I (NADH: ubiquinone oxidoreductase); test: Ubiquinone dependent NADH oxidation (complex-I inhibition); assay type: biochemical; settings: 200 μM
Method: Isolated rat brain mitochondria were lysed by freeze-thawing in hypotonic media containing 25 mM K3PO4 and 5 mM MgCl2, pH 7.2 [22]. The complex-I (i.e. NADH: ubiquinone oxidoreductase) activity of mitochondrial membrane fragments were determined according to the procedure of Birch-Machin and Turnbull. Briefly, mitochondrial membranes (50 μg protein) were incubated with 130 μM NADH (final concentration) and Antimycine A (2 μg/mL) in a 1.0 mL assay solution containing 25 mM K3PO4, 5 mM MgCl2, 2 mM KCN, 2.5 mg/mL bovine serum albumin, pH 7.2, for 2 min at 37 °C with or without rotenone, MPP^+ or 4'I-MPP^+ (for further details see the corresponding figure legends). The complex-I mediated ubiquinone dependent NADH oxidation was initiated by adding ubiquinone-1 to a final concentration of 65 μM and the initial rates of the reactions were monitored by following the decrease in absorbance at 340 nm with respect to 425 nm reference wavelength for 5 min.

MN9D or HepG2 cells = test: Mitochondrial membrane potential depolarization (TMRM); assay type: cell-based; settings: 500 μM, in about 45 min
Method: MN9D or HepG2 cells grown in glass-bottomed plates were treated with 50 nM TMRM (AnaSpec, Fremont CA, USA) in KRB-HEPES for 45 min in the dark. After mounting on the stage of a Nikon ECLIPSE Ti-S inverted fluorescence microscope, 15–20 ROIs with uniform fluorescence were selected and TMRM fluorescence at Ex/Em at 543/573 nm was recorded at 5 sec time intervals for 3 min. Then, MPP^+ or 4'I-MPP^+ was added to a final concentration of 500 or 100 μM, respectively and TMRM fluorescence measurements were continued for an additional 40 min for MPP^+ and 15 min for 4'I-MPP^+ at 15 sec time intervals. The background fluorescence was subtracted from the ROI fluorescence and averages of corrected data were used to estimate the magnitude of the mitochondrial membrane potential.

MN9D cells [3] = test: Intracellular ROS (DCFH-DA); assay type: cell-based, mouse; settings: 100 μM, 1 h at 37 °C
Method: Cells grown in 12-well plates were incubated with 10 μM DCFH-DA in KRB-HEPES for 1 h. […] After the incubations, cells were washed, harvested, solubilized with 0.1 M Tris buffer (pH 7.5) containing 1% Triton X-100, and cell debris were removed by centrifugation at 13,200 x g for 8 min at 4 °C. The content of ROS-oxidized DCFH product, 2',7'-dichlorofluorescein (DCF) in the supernatants were quantified by fluorescence (Ex/Em 488/524 nm). The data were normalized to the protein contents of individual samples. ROS productions in DCFH-DA (50 μM) loaded 250 μM 4'I-MPP^+ treated (4 h) live MN9D cells were visualized by confocal fluorescence microscopy at Ex/Em 488/524 nm using a Leica TCS SP5II microscope.

HepG2 cells [4] = test: Cellular uptake of MPP+ and 4'I-MPP+ (HPLC-UV / fluorescence); assay type: cell-based, human; settings: 100 μM toxin, 60 min
Method: (§2) Cells were seeded into 12-well plates at 0.25 x 10^6 cells/well and grown 2–3 days to about 70–80% confluency. The media was removed and a solution containing 100 μM MPP^+ or 4'I-MPP^+ in warm KRB-HEPES (or without Ca^2+ and with 1.4 mM EGTA) was added to each well and incubated at 37 °C for the desired period of time (see Figure legends for further details). After the incubations, the media were removed and cells were washed with ice-cold KRB-HEPES. Washed cells were suspended in 1.0 mL of ice-cold KRB-HEPES and 50 μL aliquots were withdrawn for protein determination. The remaining cell suspensions were centrifuged at 5000 x g at 4 °C for 5 min and the cell pellets were treated with 75 μL of 0.1 M HClO4. The coagulated proteins were pelleted by centrifugation at 13,200 x g at 4 °C for 8 min and the MPP^+ or 4'I-MPP^+ contents of the supernatants were determined by C18-reversed-phase HPLC-UV (HPLC-UV) as previously described using standard curves constructed from authentic standards. The standard curves for HPLC-UV quantifications were constructed using authentic samples of MPP^+ and 4'I-MPP^+ under the same HPLC-UV separation conditions (S1 Fig).
(§3) To quantify 4'I-MPP^+ uptake by fluorescence, MN9D or HepG2 cells grown in glass bottomed plates, washed, and reconstituted with KRB-HEPES (1.0 mL), pH 7.4, and mounted on the stage of a Nikon ECLIPSE Ti-S inverted fluorescence microscope. […]

MN9D cells [5] = test: Chromatin condensation test for apoptosis (DAPI); assay type: cell-based, mouse; settings: 250 μM, 12 h
Method: MN9D cells grown in glass-bottomed plates were treated with 250 μM MPP^+ or 4'I- MPP^+ for 12 h and then with 300 nM DAPI in KRB-HEPES for 15 min in the dark at 37 °C [24]. Then cells were rinsed and PBS was added to cover the cell layer. Increase in nuclear DAPI fluorescence (Ex/Em at 358/461 nm) due to chromatin condensation was observed using a Nikon ECLIPSE Ti-S inverted fluorescence microscope. The controls were treated similarly except that MPP^+ or 4'I-MPP^+ was omitted from the initial incubation medium.

MN9D cells [6] = test: MTT cell viability assay; assay type: cell-based; settings: Mus musculus, 16 h incubation
Method: (§4) Cell viability was determined by the MTT [3-(4,5-dimethylthiazol-2-yl)-2,5-diphenyltetrazolium bromide)] assay. Briefly, cells were seeded on 96-well plates and allowed to grow to about 70–80% confluence. Prior to the experiment, culture media was replaced with KRB-HCO3^- containing desired concentrations of MPP^+ or 4'I-MPP^+ and incubated for 16 h at 37 °C. After the incubation, 10 μL of 5 mg/mL MTT solution was added to each well and incubated for 2 h at 37 °C. The resulting formazan was solubilized by the addition of 210 μL detergent solution [50% DMF/H2O (v/v), 20% SDS (w/v)] followed by incubation at 37 °C for 12 h. The cell viabilities were determined by quantifying solubilized formazan by measuring the difference in the absorbance at 570 nm and 650 nm. Results were expressed as % viability of MPP^+ or 4'I-MPP^+ treated cells with respect to control cells, which were treated under the same conditions except in the absence of the MPP^+ or 4'I-MPP^+.

MN9D cells [7] = test: Cellular uptake of MPP+ and 4'I-MPP+ (HPLC-UV / fluorescence); assay type: cell-based, mouse; settings: 100 μM toxin, 60 min, 37 °C, KRB-HEPES
Method: as §2, §3

HepG2 cells [8] = test: MTT cell viability assay; assay type: cell-based, human; settings: MPP+ at 0–1000 μM, 4'I-MPP+ at 0–200 μM; 16 h
Method: as §4

HepG2 cells [9] = test: Intracellular ATP levels; assay type: cell-based, human; settings: 100 μM, 6 h at 37 °C
Method: as §1

[10] = Relative HPLC elution times and hydrophobicities; assay type: physicochemical
MN9D cells [11] = settings: 5 μM FCCP 30 min, then 50 μM toxin 45 min
Method: (§5) Cells grown in 12-well plates were washed and incubated with 5 μM FCCP in KRB-HEPES for 30 min followed by 50 μM MPP^+ or 4'I-MPP^+ in the same buffer for 45 min at 37 °C. After the incubations, cells were washed with ice-cold KRB-HEPES and treated with 0.1 M HClO4. The intracellular MPP^+ or 4'I-MPP^+ contents of HClO4 extracts were quantified by HPLC-UV as detailed above. The controls were treated under the same conditions except that FCCP was omitted from the initial incubation. All uptake data were normalized to the respective protein concentration of each sample. To visualize the effect of FCCP on the mitochondrial accumulation of 4'I-MPP^+, cells were grown in glass bottomed plates and incubated with 5 μM FCCP in KRB-HEPES for 30 min followed by 100 μM 4'I-MPP^+ for 1 h at 37 °C. Then cells were washed and reconstituted with 1 mL of KRB-HEPES and the intracellular 4'I-MPP^+ fluorescence (Ex/Em 340/470-550 nm) were recorded.

HepG2 cells [12] = settings: 5 μM FCCP 30 min, then 50 μM toxin 45 min; in comparison to MN9D cells
Method: as §5

Compound	effect on intracellular ATP levels (MN9D cells [1])	inhibition of the complex-I activity [2]	depolarization of the mitochondrial membrane (MN9D or HepG2 cells)	effect on ROS production (MN9D cells [3])	cellular uptake in 60 min (HepG2 cells [4])	apoptotic cell death (chromatin condensation) (MN9D cells [5])	IC50 (MN9D cells [6])	cellular uptake in 1 h (MN9D cells [7])	HepG2 cell toxicity (HepG2 cells [8])	effect on intracellular ATP levels (HepG2 cells [9])	relative elution time (hydrophobicity) ([10]; Buffer:CH3CN 70:30)	relative elution time (hydrophobicity) ([10]; Buffer:CH3CN:MeOH 60:30:10)	relative elution time (hydrophobicity) ([10]; Buffer:CH3CN:MeOH 65:25:10)	effect on cellular accumulation of MPP+ and 4'I-MPP+ (MN9D cells [11])	effect on cellular accumulation of MPP+ and 4'I-MPP+ (HepG2 cells [12])
C[n+]1ccc(-c2ccccc2)cc1 [MPP^+, 1-methyl-4-phenylpyridinium]	deplete intracellular ATP levels	21%	20–50%	increase ROS production	about 1.2 nmoles/mg	cause apoptotic MN9D cell death	~125 µM	0.6 nmoles/mg of protein	resistant	deplete intracellular ATP levels	5.92	5.28	6.02	–	–
N#CC(C#N)=NNc1ccc(OC(F)(F)F)cc1 [FCCP, carbonyl cyanide-p-trifluoromethoxyphenylhydrazone]	–	–	–	–	–	–	–	–	–	–	–	–	–	significantly decreased	stronger effect
